Patent US20240001019A1, “MBL-COATED SUBSTRATES HAVING ANTI-THROMBOGENIC PROPERTIES” (MIRAKI INNOVATION THINK TANK LLC, priority 2020, published 2024)

Experiments:
[1] = Retention of coupled FcMBL on the membrane under flow (PBS/EDTA wash fractions); format: physicochemical; details: Lot 152-04052017, Devices #1-#3, serial 45 mL fractions
Method: The FcMBL protein concentration in each sample was determined using the Pierce 660 nm assay and an FcMBL standard curve.
Three Filtrivas from Lot 152-04052017 (Devices #1, #2, and #3) were selected for analysis of their respective PBS/EDTA wash fractions to determine the extent to which the FcMBL bound to the membrane, remains bound under flow conditions. The mass of protein obtained from five serial fractions of 45 mL, three fractions from the Blood Port Output and two fractions from the subsequent Wash Buffer, was determined. […] After the second Blood Port Output, the amount of FcMBL in the subsequent fractions was undetectable (data not shown).

[2] = test system: CD62P (platelet P-selectin); experiment: Flow-cytometric analysis of platelet activation (CD62P on CD41a positive platelets); format: cell-based, human; details: for CD62P geometrical means of fluorescence intensity from TRAP-incubated samples: 35 μM TRAP, 20 min

Substance | FcMBL coupled to the membrane under flow, PBS/EDTA washing [1] | CD62P geometrical means of fluorescence intensity from TRAP-incubated samples ([2]; 1st experiment) | CD62P geometrical means of fluorescence intensity from TRAP-incubated samples ([2]; 2nd experiment) | CD62P geometrical means of fluorescence intensity from TRAP-incubated samples ([2]; 3rd experiment) | CD62P geometrical means of fluorescence intensity, positive control ([2]; all experiments)
FcMBL: 383-amino acid human recombinant fusion protein: carbohydrate-binding and neck domains of MBL and Fc domain of human IgG1 | stays bound under flow conditions | – | – | – | –
thrombin receptor activating peptide [TRAP] | – | 1376 | 209 | 350 | > 200
